Test results from patent publication US5017573A, “Indazole-3-carboxylic acid derivatives” (Dainippon Pharmaceutical Co., Ltd., priority 1988, dated 1991).

How the values were obtained:
[1] = system: serotonin 3 (5--HT3) receptor; test: Effect on Von Bezold-Jarisch reflex in rats (serotonin 3 receptor antagonist activity); format: in vivo, rat; details: male Wistar or SD rats, anesthetized; test compound 1 μg/kg i.v. 3 minutes before 2-methylserotonin (10-30 μg/kg i.v.)
Description: Effect on Von Bezold-Jarisch reflex in rats
(Serotonin 3 receptor antagonist activity)
The test was carried out substantially by the method of Fozard et al. [cf. Arch. Pharmacology, 326, 36-44 (1984)]. Male Wistar rats weighing 250-350 g or male SD rats weighing 300-400 g were anesthetized with urethane (1.5 g/kg, interraperitoneal) and placed on their back. An electrocardiogram (lead II) and a heart rate on the animals were recorded on an inkwriting oscillograph via a biophysical amplifier and a pulse rate tachomether, respectively. […] After stable responses were obtained following repeated administration of 2-methylserotonin at 15-minute intervals, the test compound (1 μg/kg) was administered intravenously 3 minutes before administration of 2-methylserotonin. The inhibition rate of the test compound was calculated as follows. [formula]

mice = test: Acute toxicity in mice; format: in vivo, mouse; details: male Std-ddY mice; 100 mg/kg i.p.; mortality observed for 7 days
Description: An acute toxicity test was performed using male Std-ddY mice weighing 25-30 g. Test compounds dissolved or suspended in 0.5 % tragacanth solution were administered intraperitoneally.

[2] = system: cisplatin-induced vomiting in ferrets; test: Effect on cisplatin-induced vomiting in ferrets; format: in vivo, ferret; details: male ferrets; 0.03 mg/kg i.v. twice (30 minutes before and 45 minutes after cisplatin 10 mg/kg); emetic episodes for 3 hours
Description: Effect on cisplatin-induced vomiting in ferrets and acute toxicity in mice
Male ferrets (Marshall Lab., U.S.A.) weighing approximately 1 kg were used. For intravenous injection, a cannule was implanted in the cervical vein under pentobarbital anethesia. The experiments were started 3 and 4 days after the operation. Saline (2 ml/kg) as a control group and a dose (0.03 mg/kg) of a test compound as a treated group were administered twice, i.e., 30 minutes before and 45 minutes after administratin of 10 mg/kg of cisplatin (Sigma, U.S.A) dissolved in saline (3 ml/kg). The number of emetic episodes for 3 hours after administration of cisplatin was recorded, and the inhibition rate of the test compound was calculated as follows. [formula]
All test compounds were administered intravenously.

## CN1CCN(Cc2ccc(Br)cc2)CC(NC(=O)c2n[nH]c3ccccc23)C1 (stereo not shown) [Example 10]
[1]
  Inhibition rate (%) of Von Bezold-Jarisch reflex: 82%

## CCCCn1nc(C(=O)NC2CN(C)CCN(Cc3ccccc3)C2)c2ccccc21 (stereo not shown) [Example 46]
[1]
  Inhibition rate (%) of Von Bezold-Jarisch reflex: 70%

## CC1CN(C)CC(NC(=O)c2n[nH]c3ccccc23)CN1Cc1ccccc1 (single isomer, unassigned) [Example 69, N-(1-benzyl-2,4-dimethylhexahydro-1H-1,4-diazepin-6-yl)-1H -indazole-3-carboxamide]
[1]
  Inhibition rate (%) of Von Bezold-Jarisch reflex: 90%

## CC1CN(Cc2ccccc2)CC(NC(=O)c2n[nH]c3ccccc23)CN1C (single isomer, unassigned) [Example 67, N-(1-benzyl-3,4-dimethylhexahydro-1H-1,4-diazepin-6-yl)-1H -indazole-3-carboxamide]
[1]
  Inhibition rate (%) of Von Bezold-Jarisch reflex: 72%

## CN1CCN(Cc2ccccc2)CC(NC(=O)c2nn(C)c3ccccc23)C1 (stereo not shown) [Example 33, N-(1-benzyl-4-methylhexahydro-1H-1,4-diazepin-6-yl)-1-methyl-1H-indazole-3-carboxamide]
[1]
  Inhibition rate (%) of Von Bezold-Jarisch reflex: 96%
mice
  Acute toxicity in mice (number of dead animals/number of animals used): 2/5
[2]
  Inhibition of emetic episodes in ferrets, inhibition rate (%): 44%

## CN1CCN(Cc2cccnc2)CC(NC(=O)c2n[nH]c3ccccc23)C1 (stereo not shown) [Example 16, N-[1-(3-pyridylmethyl)-4-methylhexahydro-1H-1,4-diazepin-6-yl]-1H-indazole-3-carboxamide]
[1]
  Inhibition rate (%) of Von Bezold-Jarisch reflex: 85%
mice
  Acute toxicity in mice (number of dead animals/number of animals used): 0/5
[2]
  Inhibition of emetic episodes in ferrets, inhibition rate (%): 82%

## CCC(=O)n1nc(C(=O)NC2CN(C)CCN(Cc3ccccc3)C2)c2ccccc21 (stereo not shown) [Example 53, N-(1-benzyl-4-methylhexahydro-1H-1,4-diazepin-6-yl)-1-propionyl-1H-indazole-3-carboxamide]
[1]
  Inhibition rate (%) of Von Bezold-Jarisch reflex: 83%
mice
  Acute toxicity in mice (number of dead animals/number of animals used): 1/5
[2]
  Inhibition of emetic episodes in ferrets, inhibition rate (%): 29%

## CN1CCN(Cc2ccc(C#N)cc2)CC(NC(=O)c2n[nH]c3ccccc23)C1 (stereo not shown) [Example 13]
[1]
  Inhibition rate (%) of Von Bezold-Jarisch reflex: 83%

## Cc1cccc(CN2CCN(C)CC(NC(=O)c3n[nH]c4ccccc34)C2)c1 (stereo not shown) [1(b), N-[1-(3-methylbenzyl)4-methylhexahydro-1H-1,4-diazepin-6-yl]-1H-indazole-3-carboxamide]
[1]
  Inhibition rate (%) of Von Bezold-Jarisch reflex: 83%

## CN1CCN(Cc2ccccc2)CC(NC(=O)c2n[nH]c3ccccc23)C1 (stereo not shown) [Example 32, N-(1-benzyl-4-methylhexahydro-1H-1,4-diazepin-6-yl)-1H-indazole-3-carboxamide]
mice
  Acute toxicity in mice (number of dead animals/number of animals used): 0/5
[2]
  Inhibition of emetic episodes in ferrets, inhibition rate (%): 62%

## CN1CCN(Cc2ccccc2F)CC(NC(=O)c2n[nH]c3ccccc23)C1 (stereo not shown) [Example 6]
[1]
  Inhibition rate (%) of Von Bezold-Jarisch reflex: 75%

## CN1CCN(Cc2ccc(F)cc2)CC(NC(=O)c2n[nH]c3ccccc23)C1 (stereo not shown) [Example 8]
[1]
  Inhibition rate (%) of Von Bezold-Jarisch reflex: 77%
mice
  Acute toxicity in mice (number of dead animals/number of animals used): 0/5
[2]
  Inhibition of emetic episodes in ferrets, inhibition rate (%): 71%

## C=CCn1nc(C(=O)NC2CN(C)CCN(Cc3ccccc3)C2)c2ccccc21 (stereo not shown) [Example 48]
[1]
  Inhibition rate (%) of Von Bezold-Jarisch reflex: 79%

## CN1CCN(Cc2cc(F)cc(F)c2)CC(NC(=O)c2n[nH]c3ccccc23)C1 (stereo not shown) [Example 23]
[1]
  Inhibition rate (%) of Von Bezold-Jarisch reflex: 86%

## CC(=O)n1nc(C(=O)NC2CN(C)CCN(Cc3ccccc3)C2)c2ccccc21 (stereo not shown) [Example 52, N-(1-benzyl-4-methylhexahydro-1H-1,4-diazepin-6-yl)-1-acetyl-1H-indazole-3-carboxamide]
[1]
  Inhibition rate (%) of Von Bezold-Jarisch reflex: 89%

## Cc1ccc(CN2CCN(C)CC(NC(=O)c3n[nH]c4ccccc34)C2)cc1 (stereo not shown) [Example 3]
[1]
  Inhibition rate (%) of Von Bezold-Jarisch reflex: 92%

## CN1CCN(Cc2ccncc2)CC(NC(=O)c2n[nH]c3ccccc23)C1 (stereo not shown) [Example 17]
[1]
  Inhibition rate (%) of Von Bezold-Jarisch reflex: 91%
mice
  Acute toxicity in mice (number of dead animals/number of animals used): 1/5
[2]
  Inhibition of emetic episodes in ferrets, inhibition rate (%): 62%

## CN1CCN(Cc2ccccc2C#N)CC(NC(=O)c2n[nH]c3ccccc23)C1 (stereo not shown) [Example 11, N-[1-(2-cyanobenzyl)-4-methylhexahydro-1H-1,4-diazepin-6-yl]-1H-indazole-3-carboxamide]
[1]
  Inhibition rate (%) of Von Bezold-Jarisch reflex: 95%

## Cc1cccc(CN2CCN(C)CC(NC(=O)c3n[nH]c4ccccc34)C2)c1 (stereo not shown) [Example 1(a), N-[1-(3-methylbenzyl)4-methylhexahydro-1H-1,4-diazepin-6-yl]-1H-indazole-3-carboxamide]
[1]
  Inhibition rate (%) of Von Bezold-Jarisch reflex: 82%
mice
  Acute toxicity in mice (number of dead animals/number of animals used): 1/5
[2]
  Inhibition of emetic episodes in ferrets, inhibition rate (%): 89%

## COc1ccc(CN2CCN(C)CC(NC(=O)c3n[nH]c4ccccc34)C2)cc1 (stereo not shown) [Example 5]
[1]
  Inhibition rate (%) of Von Bezold-Jarisch reflex: 78%

## CN1CCN(Cc2cccc(F)c2)CC(NC(=O)c2n[nH]c3ccccc23)C1 (stereo not shown) [Example 7]
[1]
  Inhibition rate (%) of Von Bezold-Jarisch reflex: 84%
